The values below come from patent US8586555B2, “Immunomodulatory compositions, formulations, and methods for use thereof” (Dynavax Technologies Corporation, priority 2001, dated 2013).

Holding throughout (format): cell-based
The subject of assay [1] is human peripheral blood mononuclear cells (hPBMC). Nature of the assay: human PBMC assay, Example 5 (96 well plates, premixed). The conditions noted are these: for IFN-α Mean / IFN-γ Mean: mean of donors 28051-28054. As to the method: (§1) Hexameric oligonucleotides were tested for immunomodulatory activity alone and complexed with lactic acid/glycolic acid copolymer microcarrier beads using a human peripheral blood mononuclear cells (hPBMC) assay. Peripheral blood was collected from healthy volunteers by venipuncture using heparinized syringes. Blood was layered onto a FICOLL® (Amersham Pharmacia Biotech) cushion and centrifuged. hPBMCs, located at the FICOLL® interface, were collected, then washed twice with cold phosphate buffered saline (PBS). The cells were resuspended and cultured in 48 well plates at 2×10^6 cells/mL at 37° C. in RPMI 1640 with 10% heat-inactivated human AB serum plus 50 units/mL penicillin, 50 μg/mL streptomycin, 300 μg/mL glutamine, 1 mM sodium pyruvate, and 1×MEM non-essential amino acids (NEAA).
(§2) Oligonucleotides were tested as single agents, or in combination with PLGA microspheres (unmodified or cationic). All oligonucleotides contained 100% phosphorothioate linkages and were tested at 20 μg/ml. The PLGA microcarriers were used at 250 μg/ml. When oligos were tested with PLGA microcarriers, the oligo and the microcarriers were added at the same time to the culture. The cells were cultured in the in the presence of test samples for 24 hours, then cell-free medium was collected from each well and assayed for IFN-γ and IFN-α concentration. Two different oligonucleotides were used as controls: a first oligonucleotide known to have immunostimulatory activity (a 22mer oligonucleotide containing an ISS (“ISS+,” 5′-[…]-3′(SEQ ID NO:2)) and a second oligonucleotide of similar sequence but lacking immunostimulatory activity (“ISS−,” 5′-[…]-3′ (SEQ ID NO:1)). SAC (PANSORBIN® CalBiochem, 1/5000 dilution) and a untreated culture were used as additional positive and negative controls, respectively. SAC contains Staph. aureus (Cowan I) cell material. All samples were assayed in duplicate.
(§3) IFN-γ and IFN-α were assayed using CYTOSCREEN™ ELISA kits from BioSource International, Inc., according to the manufacturer's instructions.
(§4) The immunomodulatory activity of the oligonucleotides used in Examples 3 and 4 was confirmed with the human PBMC assay using PBMCs from an additional four donors (donors 28051-28054). Oligonucleotides were tested alone or in combination with cationic PLGA as described in Example 3, except that 96 well plates were used instead of 48 well plates and the oligonucleotides were premixed with the cationic microspheres at room temperature for 15 minutes before they were added to the culture, rather than being added simultaneously to the culture.

For assay [2] the test system is unchanged. Nature of the assay: human PBMC assay, Example 4 (oligos and PLGA premixed 15 minutes). The conditions noted are these: for IFN-α Mean / IFN-γ Mean: mean of donors 28044, 28045. Here is the method: as §1, §2, §3
Additional hexameric and pentameric oligonucleotides were tested for immunomodulatory activity in the PBMC assay. Oligonucleotides 6-6 (5′-TCGAGA-3′), 6-8 (5′-GTCGAC-3′), 6-9 (5′-GTCGTT-3′), 6-2 (5′-TCGTTT-3′), 6-3 (5′-TTCGTT-3′), 6-4 (5′-TTTCGT-3′), 5-1 (5′-TCGTC-3′), and 5-2 (5′-TCGTT-3′) were tested alone or in combination with cationic PLGA as described in Example 3 except that the oligos and PLGA were premixed for 15 minutes room temperature before addition to the cultures. The test articles were assayed using PBMC isolated from donors 28044 and 28045.

Assay [3] shares this test system. Nature of the assay: human PBMC assay, Example 7 (oligo 20 μg/ml, cPLGA 100 μg/ml). The conditions noted are these: for IFN-α Mean / IFN-γ Mean: mean of donors 28115-28118. As to the method: as §1, §2, §3, §4
Additional oligonucleotides, some incorporating modified bases, were tested for immunomodulatory activity in the human PBMC assay. Oligonucleotides were tested alone or in combination with cPLGA as described in Example 5. The oligonucleotides were premixed with the cationic PLGA microspheres for 15 minutes at room temperature at concentrations of 20 μg/ml and 100 μg/ml, respectively.

Assay [4] has the same test system. Nature of the assay: human PBMC assay, Example 6. Here is the method: as §1, §2, §3, §4
Additional oligonucleotides were tested for immunomodulatory activity in the human PBMC assay. Oligonucleotides were tested alone or in combination with cPLGA as described in Example 5.
Additional oligonucleotides were tested using hPBMCs from volunteers 154-157 using the same assay. Results, which are shown in Table 7, confirm the activity of oligonucleotides fitting the formula 5′-X1TCGX2-3′, where the oligonucleotide is a 3-6mer, X1 is zero or one nucleotide and X2 is zero to three nucleotides.

Where [5] appears, read: delivered as IMO/MC complexes (cPLGA).

Turning to 5′-GTCGAC-3′ [Oligonucleotide 6-8], the “immunomodulatory activity” value in assay [1] (delivered alone) was “inactive”; in assay [1] (setting [5]) it was “highly active”. Further, the IFN-α in assay [1] (donor 28051) worked out at 1 pg/mL; in assay [1] (donor 28052), 0 pg/mL; in assay [1] (donor 28053) it was 6 pg/mL; in assay [1] (donor 28054), 0 pg/mL; in assay [2] (donor 28044) it was 0 pg/mL; in assay [2] (donor 28045), 0 pg/mL. Besides, the IFN-γ in assay [1] (donor 28051) is 0 pg/mL; in assay [1] (donor 28052), 0 pg/mL; in assay [1] (donor 28053) it was 1 pg/mL; in assay [1] (donor 28054), 2 pg/mL; in assay [2] (donor 28044), 6 pg/mL; in assay [2] (donor 28045), 0 pg/mL. Also, the “IFN-α Mean” value in assay [1] is 2 pg/mL; in assay [2], 0 pg/mL. Also, the “IFN-γ Mean” value in assay [1] turned out to be 1 pg/mL; in assay [2] it was 3 pg/mL.
As to 5′-TCGTC-3′ [Oligonucleotide 5-1], the “immunomodulatory activity” value in assay [1] (delivered alone) is “inactive”; in assay [1] (setting [5]), “highly active”. Also, the IFN-α turned out to be 0 pg/mL in assay [1] (donor 28051); 3 pg/mL in assay [1] (donor 28052); 1 pg/mL in assay [1] (donor 28053); 1 pg/mL in assay [1] (donor 28054); 0 pg/mL in assay [2] (donor 28044); 0 pg/mL in assay [2] (donor 28045). In addition, the IFN-γ in assay [1] (donor 28051) worked out at 1 pg/mL; in assay [1] (donor 28052) it was 0 pg/mL; in assay [1] (donor 28053) it was 1 pg/mL; in assay [1] (donor 28054), 0 pg/mL; in assay [2] (donor 28044) it was 6 pg/mL; in assay [2] (donor 28045), 7 pg/mL. Also, the “IFN-α Mean” value in assay [1] stood at 1 pg/mL; in assay [2] it was 0 pg/mL. Further, the “IFN-γ Mean” value was determined as 1 pg/mL in assay [1] and 6 pg/mL in assay [2].
Turning to 5′-TTTCGT-3′ [Oligonucleotide 6-4], the “immunomodulatory activity” value in assay [1] (setting [5]) is “variable activity”. Moreover, the IFN-α in assay [1] (donor 28051) came out at 0 pg/mL; in assay [1] (donor 28052) it was 2 pg/mL; in assay [1] (donor 28053), 11 pg/mL; in assay [1] (donor 28054), 0 pg/mL; in assay [2] (donor 28044), 0 pg/mL; in assay [2] (donor 28045), 0 pg/mL. The IFN-γ amounted to 3 pg/mL in assay [1] (donor 28051); 0 pg/mL in assay [1] (donor 28052); 2 pg/mL in assay [1] (donor 28053); 0 pg/mL in assay [1] (donor 28054); 13 pg/mL in assay [2] (donor 28044); 0 pg/mL in assay [2] (donor 28045). Moreover, the “IFN-α Mean” value in assay [1] is 3 pg/mL; in assay [2], 0 pg/mL. The “IFN-γ Mean” value in assay [1] is 1 pg/mL; in assay [2], 6 pg/mL.
On to 5′-TTCGTT-3′ [Oligonucleotide 6-3], for which the “immunomodulatory activity” value is “inactive” in assay [1] (delivered alone) and “highly active” in assay [1] (setting [5]). Further, the IFN-α stood at 0 pg/mL in assay [1] (donor 28051); 5 pg/mL in assay [1] (donor 28052); 5 pg/mL in assay [1] (donor 28053); 0 pg/mL in assay [1] (donor 28054); 0 pg/mL in assay [2] (donor 28044); 0 pg/mL in assay [2] (donor 28045). In addition, the IFN-γ in assay [1] (donor 28051) worked out at 1 pg/mL; in assay [1] (donor 28052), 0 pg/mL; in assay [1] (donor 28053), 5 pg/mL; in assay [1] (donor 28054) it was 0 pg/mL; in assay [2] (donor 28044), 6 pg/mL; in assay [2] (donor 28045) it was 0 pg/mL. In addition, the “IFN-α Mean” value in assay [1] was found to be 3 pg/mL; in assay [2] it was 0 pg/mL. Further, the “IFN-γ Mean” value in assay [1] was found to be 2 pg/mL; in assay [2] it was 3 pg/mL.
Turning to 5′-TCGAGA-3′ [Oligonucleotide 6-6], the entries for the “immunomodulatory activity” value in assay [1] (delivered alone) and in assay [1] (setting [5]) were “inactive” and “highly active”, respectively. In addition, the IFN-α came to 1 pg/mL in assay [1] (donor 28051); 4 pg/mL in assay [1] (donor 28052); 0 pg/mL in assay [1] (donor 28053); 10 pg/mL in assay [1] (donor 28054); 0 pg/mL in assay [2] (donor 28044); 0 pg/mL in assay [2] (donor 28045). In addition, the IFN-γ is 2 pg/mL in assay [1] (donor 28051); 2 pg/mL in assay [1] (donor 28052); 1 pg/mL in assay [1] (donor 28053); 2 pg/mL in assay [1] (donor 28054); 0 pg/mL in assay [2] (donor 28044); 0 pg/mL in assay [2] (donor 28045). In addition, the “IFN-α Mean” value in assay [1] is 4 pg/mL; in assay [2] it was 0 pg/mL. Also, the “IFN-γ Mean” value in assay [1] was determined as 2 pg/mL; in assay [2], 0 pg/mL.
5′-TTCGT-3′ [Oligonucleotide 5-3]: the “immunomodulatory activity” value in assay [3] (combined with cPLGA) is reported as “active in two of four donors”. The IFN-α in assay [3] (donor 28115) amounted to 10 pg/mL; in assay [3] (donor 28116), 0 pg/mL; in assay [3] (donor 28117), 0 pg/mL; in assay [3] (donor 28118), 0 pg/mL. In addition, the IFN-γ in assay [3] (donor 28115) turned out to be 26 pg/mL; in assay [3] (donor 28116), 4 pg/mL; in assay [3] (donor 28117), 17 pg/mL; in assay [3] (donor 28118) it was 0 pg/mL. Moreover, the “IFN-α Mean” value in assay [3] turned out to be 3 pg/mL. Besides, in assay [3], the “IFN-γ Mean” value is 12 pg/mL.
In the case of “5′-TCCTTT-3′ [Oligonucleotide 6-20, reference compound]”, the “IFN-α Mean” value in assay [4] (mean of volunteers 154-157) and in assay [3] was 0 pg/mL in each case. For the same substance, the figures for the “IFN-γ Mean” value in assay [4] (mean of volunteers 154-157) and in assay [3] were 3 pg/mL and 5 pg/mL, respectively. For the same substance, the IFN-α in assay [4] (volunteer 154), in assay [4] (volunteer 155), in assay [4] (volunteer 156), in assay [4] (volunteer 157), in assay [3] (donor 28115) and in assay [3] (donor 28116) was 0 pg/mL in each case. In addition, the IFN-α in assay [3] (donor 28117) and in assay [3] (donor 28118) was 0 pg/mL each time. Also, the IFN-γ in assay [4] (volunteer 154) came out at 0 pg/mL; in assay [4] (volunteer 155) it was 0 pg/mL; in assay [4] (volunteer 156) it was 13 pg/mL; in assay [4] (volunteer 157), 0 pg/mL; in assay [3] (donor 28115), 6 pg/mL; in assay [3] (donor 28116), 3 pg/mL. Also, the values for the IFN-γ in assay [3] (donor 28117) and in assay [3] (donor 28118) were 9 pg/mL and 0 pg/mL, respectively.
For 5′-GTCGTT-3′ [Oligonucleotide 6-9], the “immunomodulatory activity” value in assay [1] (delivered alone) was “inactive”; in assay [1] (setting [5]), “highly active”. For the same substance, the IFN-α was 0 pg/mL in assay [1] (donor 28051); 0 pg/mL in assay [1] (donor 28052); 6 pg/mL in assay [1] (donor 28053); 0 pg/mL in assay [1] (donor 28054); 0 pg/mL in assay [2] (donor 28044); 0 pg/mL in assay [2] (donor 28045). The IFN-γ in assay [1] (donor 28051) is 1 pg/mL; in assay [1] (donor 28052), 0 pg/mL; in assay [1] (donor 28053), 2 pg/mL; in assay [1] (donor 28054), 1 pg/mL; in assay [2] (donor 28044), 6 pg/mL; in assay [2] (donor 28045) it was 0 pg/mL. The “IFN-α Mean” value was determined as 2 pg/mL in assay [1] and 0 pg/mL in assay [2]. The “IFN-γ Mean” value in assay [1] came to 1 pg/mL; in assay [2], 3 pg/mL.
